Measured values taken from patent US9353084B2, “2-amino 3,5,5-trifluoro-3,4,5,6-tetrahydropyridines as BACE1 inhibitors for treatment of Alzheimer's disease” (H. Lundbeck A/S, priority 2014, dated 2016).
Where two headings read alike, the source gives them in different places.

Legend:
human BACE1 = human BACE1 (Homo sapiens (Human), UniProt P56817); experiment: BACE1 binding assay (SPA-based, radioligand displacement); conditions: pH 4.5, Ki calculated from IC50
Description: The binding assay was performed as SPA-based assay using a biotinylated form of human BACE1 recombinantly expressed and subsequently purified from Freestyle HEK293 cells. The binding assay was run in a 50 mM sodium acetate buffer, pH 4.5 containing 50 mM NaCl and 0.03% Tween-20 in white clear bottom 384 plates (Corning #3653). 10 nM (final concentration) radioligand ([^3H]—N-((1S,2R)-1-benzyl-3-cyclopropylamino-2-hydroxy-propyl)-5-(methanesulfonyl-methyl-amino)-N—((R)-1-phenyl-ethyl)-isophthalamide) (TRQ11569 purchased from GE Healthcare) was mixed with test compound at a given concentration, 6 nM (final concentration) human BACE1 and 25 μg Streptavidin coated PVT core SPA beads (RPNQ0007, GE Healthcare Life Sciences) in a total volume of 40 μl. Several concentrations of each test compound were tested in the assay for IC50 determination. The plates were incubated for one hour at room temperature and counted in a Wallac Trilux counter. Total and non-specific binding were determined using buffer and 1 μM (final concentration) of the high affinity BACE1 reference inhibitor (S)-6-[3-chloro-5-(5-prop-1-ynyl-pyridin-3-yl)-thiophen-2-yl]-2-imino-3,6-dimethyl-tetrahydro-pyrimidin-4-one, respectively. For each test compound, a IC50 value (the concentration mediating 50% inhibition of the specific binding of the radioligand) was determined from concentration-response curve and used to calculate the Ki from the equation Ki=IC50/(1+L/Kd), where L and Kd are the final concentration of the radioligand used in the assay and the dissociation constant of the radioligand, respectively. The Kd of the radioligand was determined from saturation binding experiments.

Aβ40 = experiment: Assessment of Aβ40 levels in rat brain and plasma following BACE1 inhibition (ELISA); type: in vivo; conditions: 3 hours post dose, vs vehicle
Description: (§1) Young adult Male Sprague Dawley rats of approximately 250 g weight were purchased from Charles River and received 0-30 mg/kg of vehicle (10% HP betaCD+1M MeSO4, pH 2.5) or test compounds (dissolved in vehicle) only by oral gavage (p.o). The compounds are dosed at a volume of 5 ml/kg. Cohorts of 5-10 animals were established for each treatment condition.
(§2) At T=180 minutes after initial dosing the animals were stunned and decapitated with a guillotine. Trunk-blood was sampled in EDTA coated tubes after decapitation of the animal. The blood was centrifuged at 2200 G at 4° C. for 15 minutes and the plasma was collected and frozen at −80° C. The blood was aliquoted for Aβ ELISA and DMPK analysis Immediately following sacrifice, the brain was extracted and split into 2 halves. The right hemibrains were snap frozen on dry ice and stored at −80° C. The left half was dissected; with the front forebrain taken for Aβ ELISA and the remainder used for DMPK analysis. These samples were also snap frozen on dry ice and stored at −80° C. until use for analysis.
The cortex samples were thawed slightly on wet ice before they were homogenized with a small volume dispersing instrument (T10 basic ULTRA-TURRAX®) which was set at speed 5 for approximately 5-7 sec. The tissue was processed in a 10 times volume of the weight, for example 100 mg of tissue was homogenized in 1000 μL of Homogenization buffer. Homogenization buffer: 50 ml Milli Q water+[…]+0.2% Diethylamin (DEA)+1 tablet of Complete Protease inhibitor cocktail+1 nM 4-(2-aminoethyl)benzenesulfonyl fluoride hydrochloride irreversible serine protease inhibitor (AEBSF).
After homogenization 450 μL aliquots of the samples are collected into a 1.5 ml Eppendorf tube and placed on wet ice, 0.5% NP-40 (50 ul) was added to all samples and then they were incubated on ice for 30 min. After which all samples were sonicated using an Ultrasonic homogenizer with 20 kHz homogeneous sound (SONOPLUS HD2070, Bandelin Electronic) 10 pulse set at 12-13% power to extract all the Aβ species. The samples were then centrifuged (Ole Dich 157 MPRF Micro centrifuge) at 20000 G for 20 minutes at 4° C. After centrifugation 285 μL of the supernatant was pipetted into 600 μL microtubes tubes and neutralized with 15 μL of 1M Tris-HCL buffer.
WAKO 294-62501 Human/Rat Abeta amyloid (40) kit was used for all ELISA analyses. 30 μL plasma samples or 30 μL of the cortex supernatants generated as described above were placed in 600 μL microtubes tubes on wet ice. To this 30 μL of 8M Urea (AppliChem A1049, 9025) are added to generate a 2-fold dilution. Both plasma and cortex supernatants are incubated on ice for 30 min. Standard rows were prepared from the standard peptide stock provided in the kit and standard diluent containing 1.6M Urea (200 μL 8M Urea+800 μL of standard diluent) and 0.8M Urea (400 μL 8M Urea+3600 μL Standard diluent). A serial 2-fold dilution of Aβ40 from 100 pmol/ml to 0 pmol/L was prepared for the assay.
After incubation with urea, all samples were further diluted by addition of 5 times standard diluent from the Kit. This was done by adding 240 μL Standard Diluent to 60 μL sample/urea mixture, which was then mixed well. 100 μL of each diluted sample was pipetted into designated wells of the ELISA plate in duplicates. The plate was then covered and incubated overnight at 4° C. The following day, the ELISA kit was brought to room temperature before use. The incubated plate was washed 5 times with the 20× washing solution diluted in Milli Q water. 100 μL HRP-conjugate was applied to each well, and the plate was covered and incubates at 4° C. for 1 hr. The wash was repeated again for 5 times. 100 μL 3,3′,5,5′-Tetramethylbenzidine (TMB) solution was applied to each well and the plate was covered and incubated in the dark at room temperature for 30 minutes. […]

[1] = Brain and plasma exposure in rats after oral dosing (DMPK analysis); type: in vivo; conditions: male, Sprague Dawley, 3 hours post dose, rat, read-out: Brain/Plasma ratio
Description: as §1, §2
Compounds 1, 5, 17, 18, and 24 were administered at doses of 10 or 30 mg/kg p.o. and brain and plasma samples were collected at 3 hours post dose and the following exposures and reductions in Aβ40 levels were measured as described above.

human BACE1, sequence (P56817 46-501): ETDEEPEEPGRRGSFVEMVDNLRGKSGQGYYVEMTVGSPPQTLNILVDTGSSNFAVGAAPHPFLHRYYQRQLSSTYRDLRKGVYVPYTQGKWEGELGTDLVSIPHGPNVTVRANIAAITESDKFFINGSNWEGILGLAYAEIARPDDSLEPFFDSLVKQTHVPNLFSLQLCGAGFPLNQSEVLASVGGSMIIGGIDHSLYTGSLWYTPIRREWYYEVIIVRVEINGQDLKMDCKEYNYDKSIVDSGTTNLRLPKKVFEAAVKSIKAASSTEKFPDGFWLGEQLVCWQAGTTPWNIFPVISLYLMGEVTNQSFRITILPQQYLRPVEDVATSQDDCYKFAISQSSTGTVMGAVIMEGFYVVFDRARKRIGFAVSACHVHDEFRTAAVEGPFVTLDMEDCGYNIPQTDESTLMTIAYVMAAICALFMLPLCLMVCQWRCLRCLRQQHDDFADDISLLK

Row | Compound | Ki (human BACE1) [nM] | Kp at 3 h ([1]; 30 mg/kg p.o.) | Kp at 3 h ([1]; 10 mg/kg p.o.) | Aβ40 reduction, Brain Rat (Aβ40; 30 mg/kg p.o.) [%] | Aβ40 reduction, Plasma Rat (Aβ40; 30 mg/kg p.o.) [%] | Aβ40 reduction, Brain Rat (Aβ40; 10 mg/kg p.o.) [%] | Aβ40 reduction, Plasma Rat (Aβ40; 10 mg/kg p.o.) [%]
1 | C[C@]1(F)CC(F)(F)[C@@](C)(c2cc(NC(=O)c3ccc(F)cn3)ccc2F)N=C1N [Compound 1, N-(3-((2R,5S)-6-amino-3,3,5-trifluoro-2,5-dimethyl-2,3,4,5-tetrahydropyridin-2-yl)-4-fluorophenyl)-5-fluoropicolinamide] | 83 | 0.62 |  | 56 | 41 |  | 
2 | COc1cnc(C(=O)Nc2ccc(F)c([C@@]3(C)N=C(N)[C@@](C)(F)CC3(F)F)c2)cn1 [Compound 5, N-(3-((2R,5S)-6-amino-3,3,5-trifluoro-2,5-dimethyl-2,3,4,5-tetrahydropyridin-2-yl)-4-fluorophenyl)-5-methoxypyrazine-2-carboxamide] | 18 | 1.5 | 1.3 | 61 | 39 | 34 | 34
3 | COc1ccc(C(=O)Nc2ccc(F)c([C@@]3(C)N=C(N)[C@@](C)(F)CC3(F)F)c2)nc1 [Compound 17, N-(3-((2R,5S)-6-amino-3,3,5-trifluoro-2,5-dimethyl-2,3,4,5-tetrahydropyridin-2-yl)-4-fluorophenyl)-5-methoxypicolinamide] | 11 | 1.48 |  | 63 | 49 |  | 
4 | C[C@@]1(F)CC(F)(F)[C@@](C)(c2cc(NC(=O)c3cnc(C(F)F)cn3)ccc2F)N=C1N [Compound 24, N-(3-((2R,5R)-6-amino-3,3,5-trifluoro-2,5-dimethyl-2,3,4,5-tetrahydropyridin-2-yl)-4-fluorophenyl)-5-(difluoromethyl)pyrazine-2-carboxamide] | 420 | 1.2 | 1.39 | 49 | 61 | 15 | 28
5 | [2H]C([2H])([2H])Oc1ccc(C(=O)Nc2ccc(F)c([C@@]3(C)N=C(N)[C@@](C)(F)CC3(F)F)c2)nc1 [Compound 48] | 14 |  |  |  |  |  | 

The next lines start with results.

Row | Ki (human BACE1) [nM] | Kp at 3 h ([1]; 30 mg/kg p.o.) | Kp at 3 h ([1]; 10 mg/kg p.o.) | Compound | Aβ40 reduction, Brain Rat (Aβ40; 30 mg/kg p.o.) [%] | Aβ40 reduction, Plasma Rat (Aβ40; 30 mg/kg p.o.) [%] | Aβ40 reduction, Brain Rat (Aβ40; 10 mg/kg p.o.) [%] | Aβ40 reduction, Plasma Rat (Aβ40; 10 mg/kg p.o.) [%]
6 | 4.3 | 0.54 | 0.53 | Cc1cc(C#N)cnc1C(=O)Nc1ccc(F)c([C@@]2(C)N=C(N)[C@@](C)(F)CC2(F)F)c1 [Compound 18, N-(3-((2R,5S)-6-amino-3,3,5-trifluoro-2,5-dimethyl-2,3,4,5-tetrahydropyridin-2-yl)-4-fluorophenyl)-5-cyano-3-methylpicolinamide] | 61 | 50 | 66 | 54
7 | 65 |  |  | Cc1nc(C(=O)Nc2ccc(F)c([C@@]3(C)N=C(N)[C@@](C)(F)CC3(F)F)c2)c(C)o1 [Compound 47, N-(3-((2R,5S)-6-amino-3,3,5-trifluoro-2,5-dimethyl-2,3,4,5-tetrahydropyridin-2-yl)-4 fluorophenyl)-2,5-dimethyloxazole-4-carboxamide] |  |  |  | 
8 | 60 |  |  | Cc1cc(F)cnc1C(=O)Nc1ccc(F)c([C@@]2(C)N=C(N)[C@@](C)(F)CC2(F)F)c1 [Compound 49, N-(3-((2R,5S)-6-amino-3,3,5-trifluoro-2,5-dimethyl-2,3,4,5-tetrahydropyridin-2-yl)-4-fluorophenyl)-5-fluoro-3-methylpicolinamide] |  |  |  | 
